Test results as given in patent US10525110B2, “Methods for inducing partial apoptosis using caspase polypeptides” (Bellicum Pharmaceuticals, Inc., priority 2013, dated 2020).
Read-outs that look alike come from different tables or passages of the source.

How the values were obtained:
human CD3+CD19+ T cells = experiment: AP1903 dose-dependent elimination in vivo of iCasp9-transduced T cells in NSG mice; design: species or system immune deficient mice (NSG); settings: i.p., wild-type iCasp9-transduced T cells, 24 hours
Description: (§1) FIG. 65A-B: AP1903 dose-dependent elimination in vivo of T cells transduced with wild-type iCasp9. T cells were transduced with SFG-iCasp9-2A-ΔCD19 retrovirus and injected i.v. into immune deficient mice (NSG). After 24 hours, mice were injected i.p. with AP1903 (0-5 mg/kg). After an additional 24 hours, mice were sacrificed and lymphocytes from the spleen (65A) and peripheral blood (65B) were isolated and analyzed by flow cytometry for the frequency of human CD3^+CD19^+ T cells.
as §1, with “66:” for “65A-B:”, “D330E” for “wild-type”, “SFG-iCasp9-D330E-2A-ΔCD19” for “SFG-iCasp9-2A-ΔCD19”, “(A)” for “(65A) and peripheral blood (65B)”

CD3+ΔCD19+ cells = experiment: CASPALLO phase 1 trial: AP1903 in patients with GvHD after iCasp9 T cell infusion; format: in vivo, human
[1] = Phase I study of AP1903 in healthy volunteers; format: in vivo; settings: male, human, plasma, intravenous, 0.4 mg/kg; reached within 15-30 min
Description: FIG. 49(A-B) provides the results of a dose-escalation study in normal male volunteers. FIG. 49A is a line graph and 49B is a chart. Healthy volunteers were infused with the indicated doses of AP1903 and at various time points, serum levels of AP1903 were measured using HPLC analysis.
In a previous Phase I study of AP1903, 24 healthy volunteers were treated with single doses of AP1903 for Injection at dose levels of 0.01, 0.05, 0.1, 0.5 and 1.0 mg/kg infused IV over 2 hours. […] Iuliucci J D, et al., J Clin Pharmacol. 41: 870-9, 2001.

[2] = cited from earlier work
cells = experiment: AP1903 needed in vitro for effective signaling of cells; format: cell-based

**Q.** With CC[C@H](C(=O)N1CCCC[C@H]1C(=O)O[C@H](CCc1ccc(OC)c(OC)c1)c1cccc(OCC(=O)NCCNC(=O)COc2cccc([C@@H](CCc3ccc(OC)c(OC)c3)OC(=O)[C@@H]3CCCCN3C(=O)[C@@H](CC)c3cc(OC)c(OC)c(OC)c3)c2)c1)c1cc(OC)c(OC)c(OC)c1 (relative stereo) [AP1903, 2-Piperidinecarboxylic acid, 1-[(2S)-1-oxo-2-(3,4,5-trimethoxyphenyl)butyl]-, 1,2-ethanediylbis[imino(2-oxo-2,1-ethanediyl)oxy-3,1-phenylene[(1R)-3-(3,4-dimethoxyphenyl)propylidene]] ester, [2S-[1(R*),2R*[S*[S*[1(R*),2R*]]]]]-(9Cl)] as the molecule, how does the “dose sufficient to eliminate most modified T cells in vivo” value (human CD3+CD19+ T cells) read?
**A.** 0.5 mg/kg

**Q.** And the “effect of a single dose on GvHD-causing and virus specific T cells” value (CD3+ΔCD19+ cells; human, in vivo)?
**A.** can reduce or eliminate the subpopulation of T cells causing GvHD, but can spare virus specific CTLs

**Q.** What about the “further reduction of CD3+ΔCD19+ cells” value (CD3+ΔCD19+ cells; within 24 hours) of the same molecule?
**A.** additional log killing

**Q.** And the Cmax [1]?
**A.** 100 to 1000 nM

**Q.** And the “safety and tolerability in healthy volunteers” value ([2]; 0.01 mg/kg to 1.0 mg/kg dose range, listed as AP1903 for Injection)?
**A.** safe and well tolerated at all dose levels

**Q.** What about the “relation of plasma levels to dose” value ([2]; 0.01-1.0 mg/kg) of the same molecule?
**A.** directly proportional to dose

**Q.** And the “plasma level as % of maximal concentration” value ([2]; 2 hours post-dose)?
**A.** ~7%

**Q.** What about the “plasma level as % of maximal concentration” value ([2]; 10 hours post-dose) of the same molecule?
**A.** ~1%

**Q.** What about the well-tolerated doses ([2]; Phase I study) of the same molecule?
**A.** up to 1 mg/kg

**Q.** And the “amount needed in vitro for effective signaling of cells” value (cells)?
**A.** 10 to 100 nM
